Where “and” joins values, the source holds several entries; their conditions need not be identical. Identical values can stand only once.
Experiments:
[1] = Average particle size and PDI by dynamic light scattering (Zetasizer Nano ZS); assay type: physicochemical
Description: (§1) The average particle size (number-average value) and PDI in PBS(−) and zeta potential in 10 mM HEPES buffer solution (pH 7.4) of lipid nanoparticles were measured using “Zetasizer Nano ZS ZEN3600”, an analyzer utilizing dynamic light scattering (manufactured by Malvern).

[2] = siRNA/mRNA encapsulation rate by Ribogreen reagent (section IV); assay type: physicochemical; conditions: for % siRNA encapsulation: F7siRNA-loaded LNP, 50:10:38.5:1.5, N/P ratio 6; for % mRNA encapsulation: FlucmRNA-loaded LNP, 50:10:38.5:1.5
How it was run: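 Encapsulation % was calculated as (total − surface nucleic acid)/total × 100, with both values measured by RiboGreen fluorescence at 485/528 nm. Total RNA was read on LNPs lysed with 1% Triton X-100 at 1.2 μg/mL, and surface RNA on intact LNPs at 8 μg/mL in TE buffer. Concentrations came from a 0-2.5 μg/mL Triton-containing calibration curve.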

[3] = Storage stability of FlucmRNA-loaded LNP at −80, 5, 25 and 40° C.; assay type: physicochemical
How it was run: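 Reported period is how long all three criteria hold: encapsulation rate at 80% or more, PDI of 0.2 or less, and mean particle size within +/−20 nm of day-of-preparation value. Particle size, PDI and nucleic acid encapsulation were tracked over time at storage temperatures of −80, 5, 25 and 40° C.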

liver = assay: In vivo Fluc activity of FlucmRNA-loaded LNP by in vivo imaging, liver; conditions: Balb/c mice, FlucmRNA-loaded LNP i.v. 0.1 mg mRNA/kg, 6 hours
How it was run: (§2)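 Read-out is average radiance (p/s/cm2/sr, about 560 nm) from whole-animal imaging of liver and spleen 6 h post-dose, after tail-vein luciferin at 1.5 mg/mouse. Dosing was intravenous, 0.1 mg mRNA/kg, in 7-week-old female Balb/c mice.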

[4] = Nucleic acid encapsulation rate by Ribogreen (section II); assay type: physicochemical; conditions: for % mRNA encapsulation: NlucmRNA-loaded LNP, 60:10:40:1; for % pDNA encapsulation: pFluc-loaded LNP
Description: The encapsulation rates of siRNA, mRNA, and pDNA of lipid nanoparticles were measured using Ribogreen (manufactured by life technologies).

F7 [5] = assay: In vivo F7 knockdown, plasma F7 enzyme activity (BIOPHEN FVII), Balb/c mice; conditions: i.v. 0.025 mg siRNA/kg, plasma at 24 hours; for F7 enzyme activity (Ratio using MC3 as 1): relative plasma F7 activity of MC3 LNP as 1
How it was run: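 Plasma factor VII activity was read 24 h after a single intravenous 0.025 mg siRNA/kg dose of siRNA-loaded lipid nanoparticles in 5-week-old female Balb/c mice. Activity is relative to untreated animals (100%) and normalised to the MC3 nanoparticle benchmark (=1).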

[6] = Average particle size (ζ-Average) and PDI by dynamic light scattering (Zetasizer Nano ZSP); assay type: physicochemical
How it was run: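 Dynamic light scattering of the particles in PBS(−) gave both the polydispersity index and the ζ-Average mean size.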

spleen = assay: In vivo Fluc activity of FlucmRNA-loaded LNP by in vivo imaging, spleen; conditions: Balb/c mice, FlucmRNA-loaded LNP i.v. 0.1 mg mRNA/kg, 6 hours
How it was run: as §2

[7] = Zeta potential in 10 mM HEPES buffer (pH 7.4); assay type: physicochemical
Description: as §1

[8] = pKa of lipid nanoparticles by TNS (section II); assay type: physicochemical; conditions: F7siRNA-loaded LNP; compared with LNP of straight-chain CL4H6 or CL15H6 (FIG. 1)
Description: The pKa of lipid nanoparticles was measured using p-toluidino-2-naphthalenesulfonic acid (TNS). First, TNS (final concentration: 0.75 μM) and lipid nanoparticles (final concentration: […]) were mixed in buffer solution adjusted to each pH. The fluorescence intensity of the prepared mixture was measured with a microplate reader. The highest and lowest values among the measured values were taken as 100% and 0% charge rates respectively, and the pH indicating 50% charge rate was calculated as pKa.

F7 [9] = assay: In vivo F7 knockdown, plasma F7 enzyme activity, ICR mice; conditions: i.v. 0.003-0.1 mg siRNA/kg, plasma at 24 hours, compared with LNP of CL4H6 or CL15H6 (FIG. 2)
Description: Then, each prepared F7siRNA-loaded lipid nanoparticles were administered to ICR mice (4 weeks old, female) and in vivo F7 knockdown activity was examined.
Specifically, each F7siRNA-loaded lipid nanoparticles were intravenously administered to ICR mice at 0.003-0.1 mg siRNA/kg, and plasma F7 enzyme activity at 24 hours later was measured. Relative plasma F7 enzyme activity (%) of mice administered each F7siRNA-loaded lipid nanoparticles was calculated using plasma F7 enzyme activity of untreated mice as 100%. FIG. 2(B) is the results of intravenous administration of each F7siRNA-loaded lipid nanoparticle at 0.1 mg siRNA/kg.

factor VII (F7) = conditions: mouse liver; lipid as LNP carrier of siRNA; cited from earlier work
[10] = NlucmRNA-loaded LNP, 60:10:40:1
[11] = NlucmRNA-loaded LNP, lipid:DSPC:cholesterol:PEG-DMG 60:10:40:1
[12] = pFluc-loaded LNP, 50:10:40:1.5, N/P ratio 6
[13] = pFluc-loaded LNP, 50:10:40:1.5, N/P ratio 9
[14] = F7siRNA-loaded LNP, 50:10:38.5:1.5, N/P ratio 6
[15] = FlucmRNA-loaded LNP, 50:10:38.5:1.5
[16] = FlucmRNA-loaded LNP, lipid:DSPC:cholesterol:DMG-PEG2K 50:10:38.5:1.5

Structure (SMILES)	PdI [1, 10]	ζ-Average (nm) [1, 11]	ζ-Average (nm) [1, 12]	ζ-Average (nm) [1, 13]	PdI ([1]; pFluc-loaded LNP, N/P ratio 6)	PdI ([1]; pFluc-loaded LNP, N/P ratio 9)	% siRNA encapsulation [2]	% mRNA encapsulation [2]	Fluc Activity in liver (liver)	% mRNA encapsulation [4]	% pDNA encapsulation ([4]; N/P ratio 6)	% pDNA encapsulation ([4]; N/P ratio 9)	F7 enzyme activity (Ratio using MC3 as 1) (F7 [5])	PDI [6, 14]	ζ-Average (nm) [6, 14]	PDI [6, 15]	ζ-Average (nm) [6, 16]	ζ-potential (mV) [7, 10]	ζ-potential (mV) ([7]; pFluc-loaded LNP, N/P ratio 6)	ζ-potential (mV) ([7]; pFluc-loaded LNP, N/P ratio 9)	further results
CCCCCCCC/C=C\CCCCCCCC(=O)OCCCCCCC(O)(CCCCCCOC(=O)CCCCCCC/C=C\CCCCCCCC)CCCCOC(=O)C1CCN(C)CC1 [CL15H6, 7-hydroxy-7-(4-((1-methylpiperidine-4-carbonyl)oxy)butyl)tridecane-1,13-diyl dioleate, reference compound]	0.495	94.34 nm	121.7 nm	149.9 ± 9.8 nm	0.08	0.11 ± 0.01	100.2%	83.8%	1.17E+05 Avg Radiance [p/s/cm2/sr]	90.5%	72.4%	81.9 ± 3^ %	1.99	0.142	123.50 nm	0.238	180.90 nm	0.123 mV	0.367 mV	0.9 ± 0.9 mV	quality at production (storage stability criteria) ([3]; criteria: PDI 0.2 or less, encapsulation 80% or more): Does not meet the criteria for “good” at production; Fluc Activity in spleen (spleen): 6.17E+05 Avg Radiance [p/s/cm2/sr]
CCCCCCCCC(CCCCCC)C(=O)OCCCCCCC(O)(CCCCCCOC(=O)C(CCCCCC)CCCCCCCC)CCCCN(CCC)CCC (stereo not shown) [CL4F6, 7-(4-(dipropylamino)butyl)-7-hydroxytridecane-1,13-diyl bis(2-hexyldecanoate)]	0.157	127.2 nm	79.91 nm	91.3 ± 11.2 nm	0.08	0.19 ± 0.03	99.9%	99.6% and 99.4%	–	90%	97.1%	94.8 ± 3.3%	–	0.014	92.27 nm	–	82.66 nm and 88.07 nm	−3.72 mV	−5.17 mV	−1.7 ± 0.5 mV	pKa of lipid nanoparticle, compared [8]: lower pKa; period for which quality remained good, −80° C. ([3]; maximum storage period 1 week): 1 week; period for which quality remained good, 5° C. ([3]; maximum storage period 5 weeks): 5 weeks; period for which quality remained good, 25° C. ([3]; maximum storage period 5 weeks): 5 weeks; period for which quality remained good, 40° C. (weeks) ([3]; maximum storage period 5 weeks): 5 weeks; F7 enzyme activity (%) (F7 [5]; untreated mice as 100%): 6.8%; in vivo F7 knockdown activity, compared (F7 [9]): equivalent in vivo F7 knockdown activity
CC(CCC(C(=O)OCCCCCCC(O)(CCCCCCOC(=O)C(CCC(C)CC(C)(C)C)C(C)CC(C)(C)C)CCCCOC(=O)C1CCN(C)CC1)C(C)CC(C)(C)C)CC(C)(C)C (stereo not shown) [CL15G6]	0.201	71.65 nm	86.39 nm	100.9 ± 10.7 nm	0.03	0.12 ± 0.08	100.7%	100.24%	6.52E+06 Avg Radiance [p/s/cm2/sr]	91.8%	94.7%	91.1 ± 2.1%	2.69	0.021	97.73 nm	0.012	102.40 nm	0.419 mV	−5.84 mV	−1.9 ± 0.6 mV	pKa of lipid nanoparticle, compared [8]: lower pKa; in vivo F7 knockdown activity, compared (F7 [9]): equivalent in vivo F7 knockdown activity; Fluc Activity in spleen (spleen): 2.77E+06 Avg Radiance [p/s/cm2/sr]
CCCCCC/C=C\COC(=O)CCCCCCCC(CCCCCCCC(=O)OC/C=C\CCCCCC)OC(=O)CCCN(C)C [L319]	–	–	–	–	–	–	–	–	–	–	–	–	–	–	–	–	–	–	–	–	ED50 in F7 knockdown (factor VII (F7)): 0.01 mg siRNA/kg

— US12458605B2, “Lipid nanoparticle” (National University Corporation Hokkaido University, priority 2020, dated 2025)
